Source: patent US11008314B2, “Compounds and methods for modulating interleukin-2-inducible t-cell kinase” (CORVUS PHARMACEUTICALS, INC., priority 2016, dated 2021)

What was measured:
Format in all cases: biochemical
TXK = TXK (Homo sapiens (Human), UniProt P42681); assay: IC50 against TXK; settings: for TXK/ITK: ratio of TXK IC50 to ITK IC50
ITK = ITK (Homo sapiens (Human), UniProt Q08881); assay: IC50 against ITK
JAK3 = JAK3 (Homo sapiens (Human), UniProt P52333); assay: IC50 against JAK3
BTK = BTK (Homo sapiens (Human), UniProt Q06187); assay: IC50 against BTK
Sequence of BTK (Q06187 whole entry, species assumed): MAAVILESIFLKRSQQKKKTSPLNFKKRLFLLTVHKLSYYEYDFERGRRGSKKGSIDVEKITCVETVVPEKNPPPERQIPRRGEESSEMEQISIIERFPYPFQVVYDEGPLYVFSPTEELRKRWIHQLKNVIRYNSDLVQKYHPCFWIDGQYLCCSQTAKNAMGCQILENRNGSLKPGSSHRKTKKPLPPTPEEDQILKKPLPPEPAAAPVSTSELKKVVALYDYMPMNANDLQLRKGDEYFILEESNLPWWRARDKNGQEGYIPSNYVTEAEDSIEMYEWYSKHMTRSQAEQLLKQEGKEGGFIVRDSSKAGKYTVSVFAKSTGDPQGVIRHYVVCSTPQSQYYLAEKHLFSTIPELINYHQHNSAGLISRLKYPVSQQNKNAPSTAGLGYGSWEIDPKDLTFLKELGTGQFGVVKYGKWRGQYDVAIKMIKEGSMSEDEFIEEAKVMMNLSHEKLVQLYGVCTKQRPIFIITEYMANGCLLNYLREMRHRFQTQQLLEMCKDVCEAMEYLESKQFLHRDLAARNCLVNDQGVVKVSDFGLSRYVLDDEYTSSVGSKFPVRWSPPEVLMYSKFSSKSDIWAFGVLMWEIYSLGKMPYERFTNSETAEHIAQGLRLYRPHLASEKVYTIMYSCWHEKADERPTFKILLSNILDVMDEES

Sequence of ITK (Q08881 whole entry): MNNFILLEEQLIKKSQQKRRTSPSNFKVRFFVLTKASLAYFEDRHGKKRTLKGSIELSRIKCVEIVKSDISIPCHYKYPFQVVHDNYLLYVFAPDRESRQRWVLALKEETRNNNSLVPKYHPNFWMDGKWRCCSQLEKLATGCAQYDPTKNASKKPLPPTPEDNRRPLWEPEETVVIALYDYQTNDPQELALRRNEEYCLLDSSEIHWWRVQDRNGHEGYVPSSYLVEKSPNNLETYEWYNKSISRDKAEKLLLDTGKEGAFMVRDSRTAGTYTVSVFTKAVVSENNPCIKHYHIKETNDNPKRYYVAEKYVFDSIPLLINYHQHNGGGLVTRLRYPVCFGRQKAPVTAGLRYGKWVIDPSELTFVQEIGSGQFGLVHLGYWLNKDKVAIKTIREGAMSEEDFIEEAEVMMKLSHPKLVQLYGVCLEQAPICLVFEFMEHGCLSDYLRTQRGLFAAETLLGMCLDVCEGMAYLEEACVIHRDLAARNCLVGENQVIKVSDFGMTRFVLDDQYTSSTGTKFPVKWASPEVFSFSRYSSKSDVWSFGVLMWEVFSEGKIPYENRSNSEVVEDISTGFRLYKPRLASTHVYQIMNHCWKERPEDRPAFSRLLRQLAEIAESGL
Sequence of JAK3 (P52333 whole entry, species assumed): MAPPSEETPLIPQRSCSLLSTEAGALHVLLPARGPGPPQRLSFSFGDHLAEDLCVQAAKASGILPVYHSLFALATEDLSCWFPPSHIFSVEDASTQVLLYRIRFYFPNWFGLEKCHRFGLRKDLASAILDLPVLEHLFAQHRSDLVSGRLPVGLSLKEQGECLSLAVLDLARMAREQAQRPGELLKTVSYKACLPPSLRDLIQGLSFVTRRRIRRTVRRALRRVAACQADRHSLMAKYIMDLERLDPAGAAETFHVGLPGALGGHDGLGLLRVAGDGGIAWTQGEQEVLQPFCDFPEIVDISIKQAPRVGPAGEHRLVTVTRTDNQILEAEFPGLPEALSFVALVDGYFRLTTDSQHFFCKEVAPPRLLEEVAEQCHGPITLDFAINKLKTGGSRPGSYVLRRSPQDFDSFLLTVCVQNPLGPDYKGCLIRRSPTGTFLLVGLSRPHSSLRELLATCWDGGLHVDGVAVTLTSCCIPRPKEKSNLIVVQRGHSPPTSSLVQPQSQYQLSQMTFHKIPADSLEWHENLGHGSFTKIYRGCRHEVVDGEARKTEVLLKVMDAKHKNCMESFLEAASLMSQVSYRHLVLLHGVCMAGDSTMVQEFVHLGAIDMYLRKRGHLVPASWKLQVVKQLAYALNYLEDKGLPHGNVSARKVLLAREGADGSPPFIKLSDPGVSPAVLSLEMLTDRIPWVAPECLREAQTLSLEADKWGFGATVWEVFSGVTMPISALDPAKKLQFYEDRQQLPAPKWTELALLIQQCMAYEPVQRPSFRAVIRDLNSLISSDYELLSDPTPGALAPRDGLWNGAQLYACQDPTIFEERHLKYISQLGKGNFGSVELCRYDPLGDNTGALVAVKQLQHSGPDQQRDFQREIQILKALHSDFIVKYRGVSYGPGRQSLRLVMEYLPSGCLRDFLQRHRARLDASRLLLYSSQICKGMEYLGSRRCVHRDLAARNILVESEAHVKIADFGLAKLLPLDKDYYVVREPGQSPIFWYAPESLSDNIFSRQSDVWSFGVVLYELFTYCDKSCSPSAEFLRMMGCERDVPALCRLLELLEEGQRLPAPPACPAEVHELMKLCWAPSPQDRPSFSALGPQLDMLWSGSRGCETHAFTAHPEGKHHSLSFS
Sequence of TXK (P42681 whole entry, species assumed): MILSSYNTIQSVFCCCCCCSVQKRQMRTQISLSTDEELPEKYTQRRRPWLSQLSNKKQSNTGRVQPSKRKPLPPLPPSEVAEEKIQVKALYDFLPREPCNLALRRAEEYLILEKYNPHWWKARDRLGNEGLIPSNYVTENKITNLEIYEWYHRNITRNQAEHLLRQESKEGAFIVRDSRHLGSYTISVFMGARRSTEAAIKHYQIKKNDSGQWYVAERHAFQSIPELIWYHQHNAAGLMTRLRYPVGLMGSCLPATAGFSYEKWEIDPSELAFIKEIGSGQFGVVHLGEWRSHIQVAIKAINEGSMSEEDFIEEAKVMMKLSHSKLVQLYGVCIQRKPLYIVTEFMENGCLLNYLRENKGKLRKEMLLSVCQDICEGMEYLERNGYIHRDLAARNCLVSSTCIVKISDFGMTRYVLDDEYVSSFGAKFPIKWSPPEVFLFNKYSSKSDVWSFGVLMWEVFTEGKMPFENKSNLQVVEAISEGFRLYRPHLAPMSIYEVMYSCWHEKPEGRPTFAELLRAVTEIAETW

IC50 (TXK)	TXK/ITK (TXK)	IC50 (ITK)	IC50 (JAK3)	IC50 (BTK)	SMILES
≥ 10000 nM	519.55	10 to 100 nM	≥ 10000 nM	1000 to 10000 nM	C=CC(=O)N1CCCN(C(=O)c2cc(Sc3cnc(NC(=O)c4cccc(CN(C)C)c4)s3)c(C)cc2OC)C[C@H]1C [Compound 48]
1000 to 10000 nM	37.652	10 to 100 nM	1000 to 10000 nM	1000 to 10000 nM	C=CC(=O)N1CCCN(C(=O)c2cc(Sc3cnc(NC(=O)c4cccc(CN5CCOCC5)c4)s3)c(C)cc2OC)CC1 [Compound 49]
10 to 100 nM	14.645	< 10 nM	1000 to 10000 nM	100 to 1000 nM	C=CC(=O)N1CCN(C(=O)c2cc(Sc3cnc(NC(=O)CC)s3)c(C)cc2OC)[C@@H](C)C1 [Compound 51]
100 to 1000 nM	–	< 10 nM	1000 to 10000 nM	100 to 1000 nM	C=CC(=O)N1CCCN(C(=O)c2cc(Sc3cnc(NC(=O)C4CC4)s3)c(C)cc2OC)CCC1 [Compound 53]
10 to 100 nM	0.804	10 to 100 nM	1000 to 10000 nM	1000 to 10000 nM	C=CC(=O)N1CCN(C(=O)c2cc(Sc3cnc(NC(=O)C4CC4)s3)c(C)cc2OC)CC[C@H]1C [Compound 54]
< 10 nM	6.2416	< 10 nM	10 to 100 nM	10 to 100 nM	C=CC(=O)N1CCN(C(=O)c2cc(Sc3cnc(NC(=O)C4CC4)s3)c(C)cc2OC)CC(F)C1 (stereo not shown) [Compound 55]
1000 to 10000 nM	168.17	< 10 nM	1000 to 10000 nM	100 to 1000 nM	C=CC(=O)N1CCCN(C(=O)c2cc(Sc3cnc(NC(=O)c4cccc(CN[C@H](C)C(C)(C)C)c4)s3)c(C)cc2OC)CC1 [Compound 56]
≥ 10000 nM	15.564	100 to 1000 nM	≥ 10000 nM	≥ 10000 nM	C=CC(=O)N1CCCN(C(=O)c2cc(Sc3cnc(NC(=O)C(C)(C)C)s3)c(C)cc2OC)CC1 [Compound 57]
1000 to 10000 nM	2.9749	1000 to 10000 nM	1000 to 10000 nM	≥ 10000 nM	C=CC(=O)N1CCCN(C(=O)c2cc(CSc3cnc(NC(=O)C4CC4)s3)cc(C)c2C)CC1 [Compound 58]
100 to 1000 nM	166.05	< 10 nM	1000 to 10000 nM	1000 to 10000 nM	C=CC(=O)N1CCCN(C(=O)c2cc(Sc3cnc(NC(=O)C4CC4)s3)c(C)cc2C)C[C@H]1C [Compound 59]
1000 to 10000 nM	21.785	10 to 100 nM	≥ 10000 nM	≥ 10000 nM	C=CC(=O)N1CCCN(C(=O)c2cc(Sc3cnc(NC(=O)C4CC4)s3)c(C)cc2F)C[C@H]1C [Compound 60]
100 to 1000 nM	50.716	10 to 100 nM	1000 to 10000 nM	≥ 10000 nM	C=CC(=O)N1CCCN(C(=O)c2cc(Sc3cnc(NC(=O)C4CC4)s3)c(C)cc2Cl)C[C@H]1C [Compound 61]
1000 to 10000 nM	320.16	< 10 nM	1000 to 10000 nM	1000 to 10000 nM	C=CC(=O)N1CCCN(C(=O)c2cc(Sc3cnc(NC(=O)C4CC4)s3)c(Cl)cc2C)C[C@H]1C [Compound 62]
1000 to 10000 nM	61.086	100 to 1000 nM	≥ 10000 nM	≥ 10000 nM	C=CC(=O)N1CCCN(C(=O)c2cc(Sc3cnc(NC(=O)C4CC4)s3)cc(C)c2C)C[C@H]1C [Compound 63]
1000 to 10000 nM	11.944	100 to 1000 nM	≥ 10000 nM	≥ 10000 nM	C=CC(=O)N1CCCN(C(=O)c2cc(C)c(C)c(Sc3cnc(NC(=O)C4CC4)s3)c2)C[C@H]1C [Compound 64]
< 10 nM	0.392	< 10 nM	100 to 1000 nM	10 to 100 nM	C=CC(=O)N1CCN(C(=O)c2cc(Cc3cnc(NC(=O)C4CC4)s3)c(C)cc2OC)CC1 [Compound 65]
